From ChEMBL document CHEMBL5506040, “Design of FK866-Based Degraders for Blocking the Nonenzymatic Functions of Nicotinamide Phosphoribosyltransferase” (J Med Chem, 2024)
Active and inactive are the calls of the source. The calls are words filed in the database; no cut-off is given here.

What was measured:
SK-OV-3 = assay: cells; conditions: Homo sapiens, SK-OV-3, 72 h
Description: Cytotoxicity against human SK-OV-3 cells assessed as inhibition of cell growth incubated for 72 hrs by MTT assay

CT26 [1] = assay: cells; conditions: Mus musculus, CT26, 72 h
Description: Cytotoxicity against mouse CT26 cells assessed as inhibition of cell growth incubated for 72 hrs by MTT assay

[2] = Toxicity in immunocompetent BALB/c mouse implanted with mouse CT26 cells assessed as change in spleen size at 20 mg/kg, ip administered for 30 days relative to control group; type: organism-based; conditions: in vivo, 720 h, time 30 day
[3] = Toxicity in immunocompetent female BALB/c mouse implanted with mouse CT26 cells assessed as body weight loss at 20 mg/kg, ip administered for 30 days; type: organism-based; conditions: in vivo, 720 h, time 30 day
[4] = Induction of NAMPT degradation in immunocompetent female BALB/c mouse implanted with mouse CT26 cells assessed as reduction in intracellular NAMPT level in tumor by measuring fold change at 20 mg/kg, ip administered for 30 days by Western blot analysis (reference value: 1.00); type: functional; conditions: time 30 day
[5] = Toxicity in immunocompetent BALB/c mouse implanted with mouse CT26 cells assessed as punctate necrosis in liver at 20 mg/kg, ip administered for 30 days by H and E staining based analysis; type: organism-based; conditions: in vivo, 720 h, time 30 day
[6] = Toxicity in immunocompetent BALB/c mouse implanted with mouse CT26 cells assessed as decrease in spleen index at 20 mg/kg, ip administered for 30 days relative to FK866; type: organism-based; conditions: in vivo, 720 h, time 30 day
[7] = Half-life in male Sprague-Dawley rat at 14 mg/kg, ip measured after 24 hrs by LC/MS-MS analysis; type: ADME, organism-based; conditions: in vivo
MIA PaCa-2 = assay: cells; conditions: Homo sapiens, MIA PaCa-2, 72 h
Description: Cytotoxicity against human MIA PaCa-2 cells assessed as inhibition of cell growth incubated for 72 hrs by MTT assay

CT26 [8] = assay: Antitumor activity against mouse CT26 cells implanted in immunocompetent female BALB/c mouse model assessed as reduction in tumor growth at 20 mg/kg, ip administered for 30 days; type: functional, organism-based; conditions: time 30.0 day
[9] = Tmax in male Sprague-Dawley rat at 14 mg/kg, ip measured after 24 hrs by LC/MS-MS analysis; type: ADME, organism-based; conditions: in vivo
CT26 [10] = assay: Antitumor activity against mouse CT26 cells implanted in immunocompetent female BALB/c mouse model assessed as reduction in tumor size at 20 mg/kg, ip administered for 30 days; type: functional, organism-based; conditions: time 30.0 day
[11] = Toxicity in immunocompetent BALB/c mouse implanted with mouse CT26 cells assessed as effect on liver histopathology at 20 mg/kg, ip administered for 30 days by H and E staining based analysis; type: organism-based; conditions: in vivo, 720 h, time 30 day
[12] = biological target: T1, von Hippel-Lindau disease tumor suppressor/Nicotinamide phosphoribosyltransferase (Mus musculus) (UniProt Q99KQ4+P40338); assay: PROTAC activity at VHL/NAMPT in mouse CT26 cells assessed as induction of extracellular NAMPT degradation incubated for 24 hrs by immunoblot analysis; type: cell-based; conditions: dose 0.1-5 µM
[13] = AUC (0 to 24 hrs) in male Sprague-Dawley rat at 14 mg/kg, ip measured after 24 hrs by LC/MS-MS analysis; type: ADME, organism-based; conditions: in vivo
[14] = Apparent volume of distribution during terminal phase in male Sprague-Dawley rat at 14 mg/kg, ip measured after 24 hrs by LC/MS-MS analysis; type: ADME, organism-based; conditions: in vivo, read-out: Vz/F
[15] = Cmax in male Sprague-Dawley rat at 14 mg/kg, ip measured after 24 hrs by LC/MS-MS analysis; type: ADME, organism-based; conditions: in vivo
[16] = biological target: T1, von Hippel-Lindau disease tumor suppressor/Nicotinamide phosphoribosyltransferase (Mus musculus); assay: (§1) PROTAC activity at VHL/NAMPT in mouse CT26 cells assessed as induction of intracellular NAMPT degradation incubated for 24 hrs by Western blot analysis; type: cell-based
[17] = biological target: von Hippel-Lindau disease tumor suppressor/Nicotinamide phosphoribosyltransferase (Mus musculus, UniProt Q99KQ4+P40338); assay: as §1; type: cell-based
CT26 [18] = assay: Antitumor activity against mouse CT26 cells implanted in immunocompetent female BALB/c mouse model assessed as reduction in TNF-alpha expression at 20 mg/kg, ip administered for 30 days by ELISA; type: functional, organism-based; conditions: time 30.0 day
[19] = biological target: T1, von Hippel-Lindau disease tumor suppressor/Nicotinamide phosphoribosyltransferase (Mus musculus); assay: PROTAC activity at VHL/NAMPT in mouse CT26 cells assessed as induction of intracellular NAMPT degradation incubated for 24 hrs by immunoblot analysis; type: cell-based; conditions: dose 0.1-5 µM
CT26 [20] = assay: Antitumor activity against mouse CT26 cells implanted in immunocompetent female BALB/c mouse model assessed as reduction in IL-6 expression at 20 mg/kg, ip administered for 30 days by ELISA; type: functional, organism-based; conditions: time 30.0 day

T1 sequence (P40338 whole entry, looked up): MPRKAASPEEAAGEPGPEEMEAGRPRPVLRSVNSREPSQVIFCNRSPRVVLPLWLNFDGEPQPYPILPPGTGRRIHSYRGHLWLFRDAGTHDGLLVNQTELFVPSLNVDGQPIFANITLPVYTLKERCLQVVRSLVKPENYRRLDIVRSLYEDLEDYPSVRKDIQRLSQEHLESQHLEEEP
T1 sequence (Q99KQ4 whole entry, looked up): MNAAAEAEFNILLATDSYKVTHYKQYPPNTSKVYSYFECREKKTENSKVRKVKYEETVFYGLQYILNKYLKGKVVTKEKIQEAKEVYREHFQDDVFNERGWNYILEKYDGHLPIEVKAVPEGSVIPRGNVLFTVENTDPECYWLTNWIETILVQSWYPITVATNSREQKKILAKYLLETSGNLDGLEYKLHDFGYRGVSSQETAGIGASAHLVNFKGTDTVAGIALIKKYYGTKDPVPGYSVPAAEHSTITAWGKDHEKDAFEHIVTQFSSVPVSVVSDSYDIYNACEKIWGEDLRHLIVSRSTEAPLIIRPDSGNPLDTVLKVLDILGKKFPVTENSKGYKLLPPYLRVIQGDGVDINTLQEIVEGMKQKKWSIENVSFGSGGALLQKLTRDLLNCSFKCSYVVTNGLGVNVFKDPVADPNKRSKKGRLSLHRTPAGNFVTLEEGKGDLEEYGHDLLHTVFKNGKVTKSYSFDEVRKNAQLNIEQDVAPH
Chain of von Hippel-Lindau disease tumor suppressor/Nicotinamide phosphoribosyltransferase (Q99KQ4 whole entry): as the sequence (Q99KQ4 whole entry, looked up) above
Chain of von Hippel-Lindau disease tumor suppressor/Nicotinamide phosphoribosyltransferase (P40338 whole entry): as the sequence (P40338 whole entry, looked up) above

O=C(/C=C/c1cccnc1)NCCCCC1CCN(C(=O)c2ccccc2)CC1 [DAPORINAD]
IC50 (SK-OV-3): 6 nM | IC50 (CT26 [1]): 39 nM | Activity [2]: Toxic | Activity [3]: Non-Toxic | fold change (FC) [4]: 1.04 | Activity [5]: Toxic

Cc1ncsc1-c1ccc([C@@H](C)NC(=O)[C@H]2C[C@H](O)CN2C(=O)[C@H](NC(=O)COCCOCCOCCNC(=O)c2ccc(C(=O)N3CCC(CCCCNC(=O)/C=C/c4cccnc4)CC3)cc2)C(C)(C)C)cc1
Activity [6]: Toxic | half-life [7]: 22 h | IC50 (MIA PaCa-2): 4 nM | Activity (CT26 [8]): Active | Tmax [9]: 1 h | Activity (CT26 [10]): Active | Activity [11]: Non-Toxic | IC50 (SK-OV-3): 1020 nM | IC50 (CT26 [1]): 25800 nM | Activity [12]: Dose-Dependent Effect | AUC(0-t) at 24 h [13]: 919 ng·h/mL | Vd/F [14]: 0.483 L/kg | Activity [2]: Non-Toxic | Cmax [15]: 147 ng/mL | Activity [16]: Dose-Dependent Effect | DC50 [17]: 520 nM | Activity (CT26 [18]): Active | Activity [3]: Non-Toxic | Activity [19]: Dose-Dependent Effect | Activity (CT26 [20]): Active
